# According to patent US20100267561A1, “HERBICIDAL PYRIDAZINONE DERIVATIVES” (priority 2007, published 2010):
# What was measured:
# Assay in all cases: Test B pre-/postemergence plant response
# Type in all cases: in vivo
# [1] = system: common ragweed (Ambrosia elation); conditions: for Ragweed plant response rating: 8 g ai/ha
# Procedure, shortened: (§1)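 Seeds were sown and sprayed preemergence, while plants at 2 to 18 cm (1- to 4-leaf stage) got postemergence sprays. Compounds were formulated in a non-phytotoxic solvent mixture with surfactant. After 13 to 15 days in a greenhouse, injury was rated visually against untreated controls, 0 (no effect) to 100 (complete control).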
# [2] = system: morningglory (Ipomoea coccinea); conditions: for Morningglory plant response rating: 8 g ai/ha
# Procedure, shortened: as §1
# [3] = system: green foxtail (Setaria viridis); conditions: for Foxtail, Green plant response rating: 8 g ai/ha
# Procedure, shortened: as §1
# corn (Zea mays) = conditions: for Corn plant response rating: 8 g ai/ha
# Procedure, shortened: as §1
# kochia (Kochia scoparia) = conditions: for Kochia plant response rating: 8 g ai/ha
# Procedure, shortened: as §1
# [4] = system: surinam grass (Brachiaria decumbens); conditions: for Surinam Grass plant response rating: 8 g ai/ha
# Procedure, shortened: as §1
# [5] = system: Italian ryegrass (Lolium multiflorum); conditions: for Ryegrass, Italian plant response rating: 8 g ai/ha
# Procedure, shortened: as §1
# [6] = system: catchweed bedstraw (Galium aparine); conditions: Preemergence; for Galium plant response rating: 8 g ai/ha
# Procedure, shortened: as §1
# wild oat (Avena fatua) = conditions: for Oat, Wild plant response rating: 8 g ai/ha
# Procedure, shortened: as §1
# [7] = system: eastern black (E.B.) nightshade (Solanum ptycanthum); conditions: Preemergence; for Nightshade, E. B. plant response rating: 8 g ai/ha
# Procedure, shortened: as §1
# [8] = system: yellow nutsedge (Cyperus esculentus); conditions: for Nutsedge, Yellow plant response rating: 8 g ai/ha
# Procedure, shortened: as §1
# [9] = system: lambsquarters (Chenopodium album); conditions: for Lambsquarters plant response rating: 8 g ai/ha
# Procedure, shortened: as §1
# [10] = system: Russian thistle (Salsola iberica); conditions: Preemergence
# Procedure, shortened: as §1
# [11] = system: cocklebur (Xanthium strumarium); conditions: for Cocklebur plant response rating: 8 g ai/ha
# Procedure, shortened: as §1
# [12] = Preemergence, 16 g ai/ha, scale 0 to 100 (0 no effect, 100 complete control)
# [13] = Preemergence, 31 g ai/ha, 0 to 100 scale, 0 no effect, 100 complete control
# [14] = Preemergence, 62 g ai/ha, scale 0 to 100
# [15] = 16 g ai/ha, scale 0 to 100 (0 no effect, 100 complete control)
# [16] = 31 g ai/ha, 0 to 100 scale, 0 no effect, 100 complete control
# [17] = Postemergence, 16 g ai/ha, scale 0 to 100
# [18] = Postemergence, 31 g ai/ha, scale 0 to 100, 0 no effect, 100 complete control
# [19] = Postemergence, 62 g ai/ha, scale 0 to 100
smiles,measurement,setting,value
Cn1ncc(O)c(-c2nn(-c3ccc(Cl)cc3)cc2Br)c1=O [Compound 31],"Plant response rating, Ragweed",[1]; [12],0
same,"Plant response rating, Ragweed",[1]; [13],0
same,"Plant response rating, Ragweed",[1]; [14],0
same,Ragweed plant response rating,"[1]; Preemergence, scale 0 to 100",0
same,"Plant response rating, Morningglory",[2]; [12],0
same,"Plant response rating, Morningglory",[2]; [13],0
same,"Plant response rating, Morningglory",[2]; [14],0
same,Morningglory plant response rating,"[2]; Preemergence, scale 0 to 100",0
same,"Plant response rating, Foxtail, Green",[3]; [12],98
same,"Plant response rating, Foxtail, Green",[3]; [13],100
same,"Plant response rating, Foxtail, Green",[3]; [14],100
same,"Foxtail, Green plant response rating","[3]; Preemergence, scale 0 to 100",65
same,"Plant response rating, Corn",corn (Zea mays); [12],0
same,"Plant response rating, Corn",corn (Zea mays); [13],60
same,"Plant response rating, Corn",corn (Zea mays); [14],90
same,"Plant response rating, Kochia",kochia (Kochia scoparia); [12],0
same,"Plant response rating, Kochia",kochia (Kochia scoparia); [13],0
same,"Plant response rating, Kochia",kochia (Kochia scoparia); [14],0
same,Kochia plant response rating,"kochia (Kochia scoparia); Preemergence, scale 0 to 100",0
same,"Plant response rating, Surinam Grass",[4]; [12],80
same,"Plant response rating, Surinam Grass",[4]; [13],100
same,"Plant response rating, Surinam Grass",[4]; [14],100
same,Surinam Grass plant response rating,"[4]; Preemergence, scale 0 to 100",80
same,"Plant response rating, Ryegrass, Italian",[5]; [12],90
same,"Plant response rating, Ryegrass, Italian",[5]; [13],90
same,"Plant response rating, Ryegrass, Italian",[5]; [14],100
same,"Ryegrass, Italian plant response rating","[5]; Preemergence, scale 0 to 100",50
same,"Plant response rating, Galium",[6]; [15],0
same,"Plant response rating, Galium",[6]; [16],0
same,"Plant response rating, Galium","[6]; 62 g ai/ha, scale 0 to 100",50
same,Galium plant response rating,[6]; scale 0 to 100,0
same,"Plant response rating, Oat, Wild",wild oat (Avena fatua); [12],45
same,"Plant response rating, Oat, Wild",wild oat (Avena fatua); [13],70
same,"Plant response rating, Oat, Wild",wild oat (Avena fatua); [14],90
same,"Plant response rating, Nightshade, E. B.",[7]; [15],0
same,"Plant response rating, Nightshade, E. B.",[7]; [16],0
same,"Plant response rating, Nightshade, E. B.","[7]; 62 g ai/ha, scale 0 to 100",0
same,"Nightshade, E. B. plant response rating",[7]; scale 0 to 100,0
same,"Plant response rating, Nutsedge, Yellow",[8]; [12],0
same,"Plant response rating, Nutsedge, Yellow",[8]; [13],0
same,"Plant response rating, Nutsedge, Yellow",[8]; [14],0
same,"Nutsedge, Yellow plant response rating","[8]; Preemergence, scale 0 to 100",0
same,"Plant response rating, Lambsquarters",[9]; [12],0
same,"Plant response rating, Lambsquarters",[9]; [13],0
same,"Plant response rating, Lambsquarters",[9]; [14],0
same,Lambsquarters plant response rating,"[9]; Preemergence, scale 0 to 100",0
same,"Plant response rating, Russian Thistle",[10]; [15],0
same,"Plant response rating, Russian Thistle",[10]; [16],0
same,"Plant response rating, Russian Thistle","[10]; 62 g ai/ha, scale 0 to 100",0
same,Russian Thistle plant response rating,"[10]; 8 g ai/ha, scale 0 to 100",0
same,"Plant response rating, Cocklebur",[11]; [12],0
same,"Plant response rating, Cocklebur",[11]; [13],0
same,"Plant response rating, Cocklebur",[11]; [14],0
same,Cocklebur plant response rating,"[11]; Preemergence, scale 0 to 100",0
CCc1cc(-c2ccc(Cl)c(Cl)c2)nn1-c1c(O)cnn(C)c1=O [Compound 20],Ragweed plant response rating,"[1]; postemergence, 0-100 scale",0
same,"Plant response rating, Ragweed",[1]; [17],0
same,"Plant response rating, Ragweed",[1]; [18],0
same,"Plant response rating, Ragweed",[1]; [19],0
same,"Plant response rating, Ragweed",[1]; [14],0
same,Ragweed plant response rating,"[1]; Preemergence, scale 0 to 100",0
same,Morningglory plant response rating,"[2]; postemergence, 0-100 scale",0
same,"Plant response rating, Morningglory",[2]; [17],0
same,"Plant response rating, Morningglory",[2]; [18],0
same,"Plant response rating, Morningglory",[2]; [19],0
same,"Plant response rating, Morningglory",[2]; [12],0
same,"Plant response rating, Morningglory",[2]; [13],0
same,"Plant response rating, Morningglory",[2]; [14],0
same,Morningglory plant response rating,"[2]; Preemergence, scale 0 to 100",0
same,"Foxtail, Green plant response rating","[3]; postemergence, 0-100 scale",20
same,"Plant response rating, Foxtail, Green",[3]; [17],60
same,"Plant response rating, Foxtail, Green",[3]; [18],85
same,"Plant response rating, Foxtail, Green",[3]; [19],95
same,"Plant response rating, Foxtail, Green",[3]; [12],95
same,"Plant response rating, Foxtail, Green",[3]; [13],100
same,"Plant response rating, Foxtail, Green",[3]; [14],100
same,"Foxtail, Green plant response rating","[3]; Preemergence, scale 0 to 100",20
same,Corn plant response rating,"corn (Zea mays); postemergence, 0-100 scale",0
same,"Plant response rating, Corn",corn (Zea mays); [17],90
same,"Plant response rating, Corn",corn (Zea mays); [18],95
same,"Plant response rating, Corn",corn (Zea mays); [12],5
same,"Plant response rating, Corn",corn (Zea mays); [13],80
same,"Plant response rating, Corn",corn (Zea mays); [14],95
same,Corn plant response rating,"corn (Zea mays); Preemergence, scale 0 to 100",0
same,Kochia plant response rating,"kochia (Kochia scoparia); postemergence, 0-100 scale",0
same,"Plant response rating, Kochia",kochia (Kochia scoparia); [17],0
same,"Plant response rating, Kochia",kochia (Kochia scoparia); [18],0
same,"Plant response rating, Kochia",kochia (Kochia scoparia); [19],0
same,"Plant response rating, Kochia",kochia (Kochia scoparia); [12],0
same,"Plant response rating, Kochia",kochia (Kochia scoparia); [13],0
same,"Plant response rating, Kochia",kochia (Kochia scoparia); [14],0
same,Surinam Grass plant response rating,"[4]; postemergence, 0-100 scale",60
same,"Plant response rating, Surinam Grass",[4]; [17],90
same,"Plant response rating, Surinam Grass",[4]; [18],90
same,"Plant response rating, Surinam Grass",[4]; [19],100
same,"Plant response rating, Surinam Grass",[4]; [12],20
same,"Plant response rating, Surinam Grass",[4]; [13],50
same,"Plant response rating, Surinam Grass",[4]; [14],100
same,Surinam Grass plant response rating,"[4]; Preemergence, scale 0 to 100",0
same,"Ryegrass, Italian plant response rating","[5]; postemergence, 0-100 scale",40
same,"Plant response rating, Ryegrass, Italian",[5]; [17],55
same,"Plant response rating, Ryegrass, Italian",[5]; [18],90
same,"Plant response rating, Ryegrass, Italian",[5]; [19],90
same,"Plant response rating, Ryegrass, Italian",[5]; [12],35
same,"Plant response rating, Ryegrass, Italian",[5]; [13],40
same,"Plant response rating, Ryegrass, Italian",[5]; [14],90
same,"Ryegrass, Italian plant response rating","[5]; Preemergence, scale 0 to 100",30
same,"Plant response rating, Galium",[6]; [15],0
same,"Plant response rating, Galium",[6]; [16],50
same,"Plant response rating, Galium","[6]; 62 g ai/ha, scale 0 to 100",100
same,Galium plant response rating,[6]; scale 0 to 100,0
same,"Oat, Wild plant response rating","wild oat (Avena fatua); postemergence, 0-100 scale",50
same,"Plant response rating, Oat, Wild",wild oat (Avena fatua); [17],90
same,"Plant response rating, Oat, Wild",wild oat (Avena fatua); [18],90
same,"Plant response rating, Oat, Wild",wild oat (Avena fatua); [19],90
same,"Plant response rating, Oat, Wild",wild oat (Avena fatua); [12],0
same,"Plant response rating, Oat, Wild",wild oat (Avena fatua); [13],50
same,"Plant response rating, Oat, Wild",wild oat (Avena fatua); [14],60
same,"Oat, Wild plant response rating","wild oat (Avena fatua); Preemergence, scale 0 to 100",0
same,"Plant response rating, Nightshade, E. B.",[7]; [15],0
same,"Plant response rating, Nightshade, E. B.","[7]; 62 g ai/ha, scale 0 to 100",0
same,"Nightshade, E. B. plant response rating",[7]; scale 0 to 100,0
same,"Nutsedge, Yellow plant response rating","[8]; postemergence, 0-100 scale",0
same,"Plant response rating, Nutsedge, Yellow",[8]; [17],0
same,"Plant response rating, Nutsedge, Yellow",[8]; [18],0
same,"Plant response rating, Nutsedge, Yellow",[8]; [19],0
same,"Plant response rating, Nutsedge, Yellow",[8]; [13],0
same,"Plant response rating, Nutsedge, Yellow",[8]; [14],0
same,"Nutsedge, Yellow plant response rating","[8]; Preemergence, scale 0 to 100",0
same,Lambsquarters plant response rating,"[9]; postemergence, 0-100 scale",0
same,"Plant response rating, Lambsquarters",[9]; [17],0
same,"Plant response rating, Lambsquarters",[9]; [18],0
same,"Plant response rating, Lambsquarters",[9]; [19],40
same,"Plant response rating, Lambsquarters",[9]; [12],20
same,"Plant response rating, Lambsquarters",[9]; [13],100
same,"Plant response rating, Lambsquarters",[9]; [14],100
same,Lambsquarters plant response rating,"[9]; Preemergence, scale 0 to 100",0
same,"Plant response rating, Russian Thistle",[10]; [15],0
same,"Plant response rating, Russian Thistle",[10]; [16],0
same,"Plant response rating, Russian Thistle","[10]; 62 g ai/ha, scale 0 to 100",0
same,Cocklebur plant response rating,"[11]; postemergence, 0-100 scale",0
same,"Plant response rating, Cocklebur",[11]; [17],0
same,"Plant response rating, Cocklebur",[11]; [18],0
same,"Plant response rating, Cocklebur",[11]; [19],0
same,"Plant response rating, Cocklebur",[11]; [12],0
same,"Plant response rating, Cocklebur",[11]; [13],0
same,"Plant response rating, Cocklebur",[11]; [14],0
same,Cocklebur plant response rating,"[11]; Preemergence, scale 0 to 100",0
